Measured values reported in patent US20230125075A1, “Composition Containing Paper Mulberry Extracts” (LG Household & Health Care Ltd., priority 2020, published 2023).
Where “and” joins values, the source holds several entries; their conditions need not be identical. Identical values can stand only once.

What was measured:
Type in all cases: cell-based
[1] = test system: HepG2 cells; assay: Cholesterol synthesis in HepG2 cells ([14C] acetate incorporation); details: for IC50: positive controls, HepG2 cells
Procedure: To confirm the lipid-cholesterol improvement effect of the plant extracts, an appropriate number of HepG2 cells was seeded and cultured using a IMEM culture medium (containing 10% of FCS, 4.5 g/L of glucose, 4 mM glutamine, 10 μg/ml of insulin, 50 μg/ml of penicillin, 50 μg/ml of streptomycin, and 1% of non-essential amino acids). At this time, the culture medium was replaced every 2 days, and the cells were used for the experiment on the 12th day after seeding.
1 ml of a labeled acetate solution ([^14C] sodium acetate) was added to the cells, and the cells were incubated in a CO2 incubator. After 1 hour of incubation, the culture medium was discarded, the cells were washed with ice-cold PBS, 2 M NaOH was added to detach the cells, and the cells were incubated at 95° C. for 1 hour to induce saponification of lipids. Then, [^3H] cholesterol (about 20,000 dpm/sample) was added as a recovery marker, and lipids were extracted with a chloroform-methanol (2:1 (v/v)) solution. Then, after separating lipides through thin layer chromatohrapy (TLC), a band corresponding to free cholesterol was scraped and placed in a scintillation vial for measurement. The results for the above experiment were expressed as the amount of acetate incorporated per protein (acetate (nmole) incorporated/protein (mg)).
In this experimental example, it was confirmed whether the plant extracts inhibit cholesterol synthesis. As a result of the experiment, the amount of cholesterol was quantified. A decrease in cholesterol level means that a cholesterol improvement effect is obtained.
The effect of the test substance on the intracellular cholesterol content was expressed as a relative ratio when the control group (treated with dimethyl sulfoxide (DMSO) only) was 100% or was expressed as the amount incorporated acetate ([^14C]-acetate (nmole) incorporated/4 h/well). As the measured value increases, the amount of synthesized cholesterol increases. That is, a decrease in cholesterol synthesis indicates improvement in cholesterol.

[2] = test system: U266 cells; assay: IgE secretion measurement, ELISA
Procedure: To confirm the anti-allergic effect of the plant extracts, the secretion amount of immunoglobulin E was measured. First, U266 cells were treated with a test substance while culturing the U266 cells in an RPMI1640 culture medium containing 10% FBS for 3 days. After 3 days of treatment with the test substance, the cell culture medium was harvested. IgE capture antibody was added to the plate and left for 1 day. The plate was blocked with 2% BSA. The collected culture medium was added to the plate and mixed by shaking. IgE detection antibody was added to the plate and mixed by shaking. Streptavidin-HRP was added to the plate, and after blocking light, the mixture was shaken. A substrate was added to the plate, and after blocking light, the mixture was mixed by shaking until the color of the mixture changed to blue. After confirming that the color had changed, a 2 N sulfuric acid solution was added to the plate and mixed by shaking until the color changed to yellow. After measuring the absorbance at 450 nm and 570 nm, results were analyzed by subtracting the absorbance at 570 nm from the absorbance at 450 nm. At this time, as a positive control, 1 μM dexamethasone was used, and as a result, an inhibitory effect of 32% was observed. As a result of treatment with 0.1 μM hydrocortisone, an inhibitory effect of 35% was observed.
As a result of the experiment, the amount of IgE was quantified. As the level of IgE decreases, the anti-allergic effect increases.

[3] = test system: 3T3-L1 fibroblasts; assay: Glycerol content in culture medium of 3T3-L1 fibroblasts (lipolysis); details: positive control
Procedure: To confirm the anti-obesity effect of the plant extracts, the content of glycerol in the culture medium of 3T3-L1 fibroblasts was measured.
First, 3T3-L1 fibroblasts were cultured using a DMEM culture medium (proliferation culture medium) containing 10% bovine serum to an appropriate cell number on a plate. Then, using a DMEM culture medium (differentiation culture medium) containing 10% FBS, the cells were cultured until the plate was filled with the cells, and then were further cultured for 2 to 3 days. The existing culture medium was replaced with a culture medium to induce cell differentiation, which contains insulin (5 μg/mL), dexamethasone (0.25 μM), and 3-isobutyl-1-methylxanthine (0.5 mM), and was followed by incubation for 2 to 3 days. Afterwards, the culture medium was replaced with a medium containing only insulin and the cells were incubated for 2 to 3 days, and then the culture medium was replaced again with a DMEM culture medium containing 10% FBS and the cells were again incubated for 6 to 8 days (incubated until a point at which fat accumulation is observed in the cells). The anti-obesity substance was added before or after differentiation induction according to the purpose of the experiment. The cell culture medium was centrifuged at 10,000 rpm for 10 minutes, and the supernatant was obtained using a Pasteur pipette. The obtained supernatant was transferred to a plate and heated at 65° C. for 8 min to inactivate enzymes released from the cells. Next, a glycerol probe was dissolved in 220 μl of DMSO, and a glycerol enzyme mixture (Cayman Chemical, USA; Item No. 10010962) was dissolved in an assay buffer. These solutions were shielded from light and stored at −20° C. until experiment was performed. A 1 mM glycerol standard solution was prepared by diluting 10 μl of a glycerol standard solution with 990 μl of an analysis buffer. Then, the 1 mM glycerol standard solution was thoroughly mixed, 0, 2, 4, 6, 8, and 10 μl of the 1 Mm glycerol standard solution were respectively added to each well, and the analysis buffer was added to the each well to adjust the total volume to 50 μl. 50 μl of the sample (culture medium in which enzymes are inactivated) was added to each well. A reaction mixture containing 46 μl of the analysis buffer, 2 μl of the glycerol probe, and 2 μl of the glycerol enzyme mixture was prepared. 50 μl of the reaction mixture was added to each well containing the standard solution and the sample and was thoroughly mixed. Then, each well was shielded from light and left at room temperature for 30 minutes. Then, absorbance was measured at 570 nm.
As a result of the experiment, the amount of glycerol was quantified. Glycerol is a by-product of lipolysis. Accordingly, as the level of glycerol increases, an anti-obesity effect increases.
When lipolysis is enhanced by the test substance, the amount of triglycerides accumulated in adipocytes decreases and the amount of glycerol released increases. Accordingly, an increase in the amount of released glycerol means an increase in decomposition of triglycerides. Through this experiment, it can be confirmed that the test substance has an anti-obesity effect.

[4] = test system: C2C12 cells; assay: Glucose uptake measurement (2-NBDG method, FACS); details: positive control
Procedure: To confirm the blood glucose control effect of the plant extracts, the glucose uptake capacity of cells treated with the plant extracts was measured. First, C2C12 cells were seeded on a 96-well culture plate at a cell density of 1×10^4 cells/well. When a state of subconfluence was reached, which is within 24 hours, the experiment was started.
When saturated, the culture medium was removed, and 100 μl of a fresh medium containing 10 μM 2-NBDG or 100 μl of a fresh medium not containing 10 μM 2-NBDG (control) was added to each well. At this time, a test substance to be evaluated was included in the culture medium. That is, the cells were treated with the test substance by changing the culture medium. After treatment for 1 hour, wells were washed 2 times with pre-cold PBS. Then, cells in each well were collected and resuspended in 200 μl of a pre-cold medium, and the nuclei of the cells were stained with 1 μg/mL of propidium iodine (PI).
Measurement was performed with FACS for about 20 seconds. Event results of about 2,000 single cells were collected, and statistical analysis was performed on the event results.
In this experiment, it was determined whether the plant extracts promote intracellular glucose uptake. As a result of the experiment, the amount of glucose uptake into cells was quantified. That is, an increase in glucose uptake into cells means that the blood glucose control effect is improved.
As the value of measured fluorescence intensity increases, the glucose absorption rate increases. An increase in glucose absorption indicates a decrease in blood glucose levels.

[5] = test system: HUVEC cells; assay: Recovery of reduction in nitric oxide induced by oxLDL (Griess reagent); details: positive control
Procedure: To confirm the blood circulation improvement effect of the plant extracts, recovery of reduction in nitric oxide induced by oxidized low density lipoprotein (oxLDL) was measured. First, HUVEC cells were suspended in a Ham's F-12K (Kaighn's modification) culture medium, and the suspended cells were aliquoted into a culture plate. Then, plant extracts (samples) diluted at various concentrations were added to the culture plate containing the cells. At this time, […]. The sample-treated cells were placed in a 5% CO2 incubator set at 37° C. and cultured for 24 to 48 hours, and then the supernatant was taken and used as an analysis sample.
To analyze nitric oxide, a Griess reagent was prepared by mixing equal amounts of component A and component B. Then, 250 μl of the sample (culture medium) and 50 μl of the Griess reagent were added to a plate and mixed thoroughly. Next, to prepare a sodium nitrite solution, a nitrite standard solution was diluted with distilled water to a concentration between […] (reference sample). Under light-blocked conditions, a mixture of the sample and the Griess reagent was incubated at room temperature for 30 minutes. Thereafter, the absorbance (OD) of the nitrite-containing sample with respect to the reference sample was measured at 548 nm.
In this experiment, it was confirmed whether the level of nitric oxide decreased by oxLDL was recovered by the plant extracts. At this time, as a result of the experiment, the amount of nitric oxide was quantified. Nitric oxide plays a role in dilating blood vessels.

With `CC(C)c1c(C(=O)Nc2ccccc2)c(-c2ccccc2)c(-c2ccc(F)cc2)n1CC[C@@H](O)C[C@@H](O)CC(=O)O` [Atorvastatin] the activity at 0.0704 µM ([1]; Homo sapiens, HepG2, positive control, 70.4 nM, read-out: Lipid-cholesterol synthesis (% of control)) was 50%, the IC50 ([1]; Homo sapiens) was 70.4 nM and the Lipid-cholesterol synthesis ([1]; positive control, 70.4 nM) was 50.00 % of control. For the same compound, the “Lipid-cholesterol synthesis (% of control)” value ([1]; positive control, 70.4 nM) was 50.00 (Atorvastatin % of control, the “Lipid-cholesterol synthesis (% of control)” value ([1]; positive control, 70.4 nM, 0.0704 µM) was 50.00 (Atorvastatin % of control and the Lipid-cholesterol synthesis ([1]; positive control, Atorvastatin 70.4 nM) was 50.00 % of control.
`C[C@@H]1C[C@H]2[C@@H]3CCC4=CC(=O)C=C[C@]4(C)[C@@]3(F)[C@@H](O)C[C@]2(C)[C@@]1(O)C(=O)CO` [Dexamethasone] was tested, and the activity at 1 µM ([2]; Homo sapiens, U-266, positive control, 1 uM, read-out: Anti-allergy-IgE secretion (% of control)) was 67.3%, the inhibition at 1 µM ([2]; Homo sapiens, U-266, positive control, 1 μM, read-out: inhibitory effect on IgE secretion) was 32% and the Anti-allergy-IgE secretion ([2]; positive control, 1 uM) was 67.27 % of control. For the same compound, the “Anti-allergy-IgE secretion (% of control)” value ([2]; positive control, 1 uM) was 67.27 (Dexamethasone % of control and the Anti-allergy-IgE secretion ([2]; positive control, Dexamethasone 1 uM) was 67.27 % of control.
With `CC(C)NCC(O)c1ccc(O)c(O)c1` (centres unmarked) [Isoproterenol] the activity at 10 µM ([3]; Mus musculus, 3T3-L1, 10 μM, read-out: Anti-obesity-Glycerol Conc. (% of control)) was 872%, the “Anti-obesity-Glycerol Conc.” value ([3]; 10 pM) was 872.36 % of control and the “Anti-obesity-Glycerol Conc.” value ([3]; 10 μM) was 872.36 % of control. For the same compound, the “Anti-obesity-Glycerol Conc. (% of control)” value ([3]; 10 μM) was 872.36 (Isoproterenol % of control and the “Anti-obesity-Glycerol Conc.” value ([3]; Isoproterenol 10 μM) was 872.36 % of control.
In the case of `CN(C)C(=N)N=C(N)N` [Metformin], the activity at 1000 µM ([4]; Mus musculus, C2C12, 1 mM, read-out: Blood glucose-Glucose absorption (% of control)) is reported as 184%, the “Blood glucose-Glucose absorption” value ([4]; 1 mM) is reported as 183.77 % of control and the “Blood glucose-Glucose absorption (% of control)” value ([4]; 1 mM) is reported as 183.77 (Metformin % of control. The “increase effect on glucose uptake” value ([4]; 1 mM) was 180% and the “Blood glucose-Glucose absorption” value ([4]; Metformin 1 mM) was 183.77 % of control.
In the case of `CC(C)c1nc(N(C)S(C)(=O)=O)nc(-c2ccc(F)cc2)c1/C=C/[C@@H](O)C[C@@H](O)CC(=O)O` [Rosuvastatin], the “recovery of nitric oxide reduced by oxLDL” value ([5]; 0.1 μM) is reported as 100%, the “Blood circulation-NO Conc.” value ([5]; 0.05 ppm) is reported as 98.29 % of control and the “Blood circulation-NO Conc. (% of control)” value ([5]; 0.05 ppm) is reported as 98.29 % of control and 98.29 (Rosuvastatin % of control. For the same compound, the “Blood circulation-NO Conc.” value ([5]; Rosuvastatin 0.05 ppm) was 98.29 % of control and the “Blood circulation-NO Conc. (% of control)” value ([5]; Rosuvastatin 0.05 ppm) was 98.29 % of control.
Work on `C[C@]12CCC(=O)C=C1CC[C@@H]1[C@@H]2[C@@H](O)C[C@@]2(C)[C@H]1CC[C@]2(O)C(=O)CO` [hydrocortisone] yielded an inhibition at 0.1 µM ([2]; Homo sapiens, U-266, 0.1 μM, read-out: inhibitory effect on IgE secretion) of 35%.
For `CCCCCCCCCCC[C@@H](C[C@@H]1OC(=O)[C@H]1CCCCCC)OC(=O)[C@H](CC(C)C)NC=O` [orlistat], the “increase of glycerol compared to the negative control group” value ([3]; 0.5 ppm) was 160%.
`CCC(C)(C)C(=O)O[C@H]1C[C@@H](C)C=C2C=C[C@H](C)[C@H](CC[C@@H]3C[C@@H](O)CC(=O)O3)[C@H]21` [simvastatin] showed an IC50 ([1]; Homo sapiens) of 31.8 nM.
